In article PMC9104950, “Stereoselective Covalent Adduct Formation of Acyl Glucuronide Metabolite of Nonsteroidal Anti-Inflammatory Drugs with UDP-Glucuronosyltransferase” (International Journal of Molecular Sciences, 2022):

Experiments:
UGT2B7 = target: T1, UGT2B7 (Homo sapiens, UniProt P16662); experiment: Covalent adduct formation of NSAIDs-AG with UGT2B7; type: binding; conditions: 180 μM, UGT 3.4 μM, 6 h; for covalent adduct formation with UGT2B7 compared with the other diastereomer: R vs S diastereomer
T1 construct: purchased Corning, Inc
T1 sequence (P16662 24-529): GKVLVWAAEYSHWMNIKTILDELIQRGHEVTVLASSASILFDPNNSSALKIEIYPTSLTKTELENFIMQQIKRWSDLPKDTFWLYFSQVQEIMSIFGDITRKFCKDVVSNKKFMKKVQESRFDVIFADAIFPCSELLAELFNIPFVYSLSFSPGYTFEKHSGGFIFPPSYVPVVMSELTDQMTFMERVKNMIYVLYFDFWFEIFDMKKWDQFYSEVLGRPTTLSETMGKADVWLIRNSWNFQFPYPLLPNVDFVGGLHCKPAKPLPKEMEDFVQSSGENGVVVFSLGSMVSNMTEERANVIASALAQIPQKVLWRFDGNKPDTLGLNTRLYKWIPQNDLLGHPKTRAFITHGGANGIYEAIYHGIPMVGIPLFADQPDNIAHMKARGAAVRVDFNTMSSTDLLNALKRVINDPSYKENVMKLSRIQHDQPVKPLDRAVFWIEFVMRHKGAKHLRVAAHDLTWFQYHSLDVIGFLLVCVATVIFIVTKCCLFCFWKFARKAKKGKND
Experimental: (§1) The concentrations of UGT were set at 3.4 μM by the preliminary experiments on the linearity of covalent adduct formation. The covalent adduct formation of NSAIDs-AG with organelle proteins and UGT was determined according to previous reports on NSAIDs-AG with albumin with some modifications. After a deproteinization of the reaction mixture, methanol/diethyl ether (3:1) was added to the pellet. […] The concentrations of the parent NSAIDs were measured using liquid chromatography-tandem mass spectrometry (LC-MS/MS). Aliquots of 10 μL were injected into the LC-MS/MS system. The LC-MS/MS equipment consisted of an LC system (UltiMate 3000 series, Thermo Fisher Scientific, Inc.) and TSQ Endura Triple Quadrupole Mass Spectrometer with electrospray ionization (Thermo Fisher Scientific, Inc.). Finnigan Xcalibur software (Thermo Fisher Scientific, Inc.) was used for data recording and analysis. Analysis was further performed using a reversed-phase column (COSMOSIL 5C18-MSII, 2.0 mm × 150 mm, 5 μm; Nacalai Tesque, Inc.). The column temperature was set to 40 °C, and the autosampler was maintained at 10 °C. The mobile phase (A; 30% methanol in 8.5 mM ammonium formate and 0.0075% formic acid, and B; 90% methanol in 8.5 mM ammonium formate and 0.0075% formic acid) was pumped at a flow rate of 0.2 mL/min. The initial mobile phase composition was maintained at 30% mobile phase B for 1 min, changed linearly to 90% mobile phase B from 1 to 8 min, maintained for 1 min, returned to 30% mobile phase B from 9 to 10 min, and maintained for 1 min for chromatographic column equilibrium. The MS scan was operated in positive ionization mode for DIC, MEF, ZOM, KET, and NAP, or negative ionization mode, for FLU. The conditions for electrospray ionization were set at 3500 V spray voltage for positive ionization mode and 2500 V spray voltage for negative ionization mode at 400 °C capillary temperature, and 300 °C vaporizer temperature with 40 arbitrary units of nitrogen sheath gas and 10 arbitrary units of auxiliary gas. The MS scan was operated in the positive or negative ionization mode. The selected reaction monitoring (SRM) mode was used, with argon as the collision gas at 1.5 mTorr. The mass resolution was set at 0.7 full-width at half-height (unit resolution). SRM transitions (precursor and product ions) were mass to charge ratios of (m/z) 296 > 214 for DIC (positive ionization mode), 294 > 250 for DIC (negative ionization mode), 242 > 224 for MEF, 292 > 139 for ZOM, 243 > 198 for R- and S-FLU, 255 > 209 for R- and S-KET, 231 > 185 for R- and S-NAP, and 302 > 220 for DIC-d4. The collision energies were 15 V for DIC (negative ionization mode), ZOM, MEF, FLU, KET, and NAP; 35 V for DIC (positive ionization mode); and DIC-d4. The concentrations of NSAIDs were determined from a single-point calibration in every assay for NSAIDs after confirmation of linearity between area and concentrations of NSAIDs.

[1] = design: method as in PMID 20606003, PMID 1673415; conditions: phosphate buffers (pH 7.4); cited from earlier work
UGT1A9 = target: T2, UGT1A9 (Homo sapiens, UniProt O60656); experiment: Covalent adduct formation of NSAIDs-AG with UGT1A9; type: binding; conditions: R vs S diastereomer; 180 μM, UGT 3.4 μM, 6 h
T2 construct: purchased Corning, Inc
T2 sequence (O60656 26-530): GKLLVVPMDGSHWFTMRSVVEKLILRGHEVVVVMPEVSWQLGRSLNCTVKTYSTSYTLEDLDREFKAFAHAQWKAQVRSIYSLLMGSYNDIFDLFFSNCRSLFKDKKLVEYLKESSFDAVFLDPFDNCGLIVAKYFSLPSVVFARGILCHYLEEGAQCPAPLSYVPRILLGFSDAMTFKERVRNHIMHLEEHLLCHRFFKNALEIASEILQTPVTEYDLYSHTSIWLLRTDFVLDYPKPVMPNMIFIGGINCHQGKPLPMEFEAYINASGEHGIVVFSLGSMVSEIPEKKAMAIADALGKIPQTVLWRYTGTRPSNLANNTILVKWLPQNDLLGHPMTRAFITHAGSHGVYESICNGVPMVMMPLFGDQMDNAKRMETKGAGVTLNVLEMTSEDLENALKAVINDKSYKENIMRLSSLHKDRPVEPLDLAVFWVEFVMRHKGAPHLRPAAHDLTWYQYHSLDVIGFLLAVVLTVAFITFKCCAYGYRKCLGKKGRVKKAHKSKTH
Experimental: as §1, with “The conditions for electrospray ionization were set at 3500 V spray voltage for positive ionization mode and 2500 V spray voltage for negative ionization mode at 400 °C capillary temperature, and 300 °C vaporizer temperature with 40 arbitrary units of nitrogen sheath gas and 10 arbitrary units of auxiliary gas. The MS scan was operated in the positive or negative ionization mode. The selected reaction monitoring (SRM) mode was used, with argon as the collision gas at 1.5 mTorr. The mass resolution was set at 0.7 full-width at half-height (unit resolution). SRM transitions (precursor and product ions) were mass to charge ratios of (m/z) 296 > 214 for DIC (positive ionization mode), 294 > 250 for DIC (negative ionization mode), 242 > 224 for MEF, 292 > 139 for ZOM, 243 > 198 for R- and S-FLU, 255 > 209 for R- and S-KET, 231 > 185 for R- and S-NAP, and 302 > 220 for DIC-d4. The collision energies were 15 V for DIC (negative ionization mode), ZOM, MEF, FLU, KET, and NAP; 35 V for DIC (positive ionization mode); and DIC-d4.” left out

UGT2B4 = target: T3, UGT2B4 (Homo sapiens, UniProt P06133); experiment: Covalent adduct formation of NSAIDs-AG with UGT2B4; type: binding; conditions: 180 μM, UGT 3.4 μM, 6 h
T3 construct: purchased Corning, Inc
T3 sequence (P06133 24-528): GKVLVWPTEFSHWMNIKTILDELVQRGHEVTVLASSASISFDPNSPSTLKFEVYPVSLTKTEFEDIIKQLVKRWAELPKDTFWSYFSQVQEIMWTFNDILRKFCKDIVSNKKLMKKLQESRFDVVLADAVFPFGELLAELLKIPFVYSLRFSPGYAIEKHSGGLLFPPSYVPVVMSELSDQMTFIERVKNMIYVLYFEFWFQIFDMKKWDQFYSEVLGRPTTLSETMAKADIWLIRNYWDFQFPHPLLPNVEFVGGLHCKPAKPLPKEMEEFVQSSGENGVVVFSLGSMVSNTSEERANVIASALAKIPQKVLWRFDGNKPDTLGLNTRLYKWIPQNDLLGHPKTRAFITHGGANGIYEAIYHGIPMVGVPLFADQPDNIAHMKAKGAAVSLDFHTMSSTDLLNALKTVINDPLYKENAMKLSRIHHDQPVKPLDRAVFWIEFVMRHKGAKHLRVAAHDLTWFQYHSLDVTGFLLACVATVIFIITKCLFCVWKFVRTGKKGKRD
Experimental: as §1

UGT1A1 = target: T4, UGT1A1 (Homo sapiens, UniProt P22309); experiment: Covalent adduct formation of NSAIDs-AG with UGT1A1; type: binding; conditions: R vs S diastereomer; 180 μM, UGT 3.4 μM, 6 h
T4 construct: purchased Corning, Inc
T4 sequence (P22309 26-533): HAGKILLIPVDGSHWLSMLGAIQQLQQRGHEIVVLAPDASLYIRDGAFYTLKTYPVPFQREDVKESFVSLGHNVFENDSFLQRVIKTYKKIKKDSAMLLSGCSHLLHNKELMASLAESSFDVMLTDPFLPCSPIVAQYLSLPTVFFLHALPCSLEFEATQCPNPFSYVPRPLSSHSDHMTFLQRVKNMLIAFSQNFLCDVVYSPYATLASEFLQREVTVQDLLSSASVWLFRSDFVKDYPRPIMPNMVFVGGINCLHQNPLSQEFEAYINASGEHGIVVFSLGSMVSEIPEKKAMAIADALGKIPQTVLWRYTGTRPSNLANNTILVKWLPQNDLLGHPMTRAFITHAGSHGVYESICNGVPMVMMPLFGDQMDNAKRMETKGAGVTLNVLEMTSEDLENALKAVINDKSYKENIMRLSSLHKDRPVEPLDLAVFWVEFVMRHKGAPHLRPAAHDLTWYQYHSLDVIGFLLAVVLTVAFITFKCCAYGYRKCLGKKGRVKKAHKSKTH
Experimental: as §1, with “The conditions for electrospray ionization were set at 3500 V spray voltage for positive ionization mode and 2500 V spray voltage for negative ionization mode at 400 °C capillary temperature, and 300 °C vaporizer temperature with 40 arbitrary units of nitrogen sheath gas and 10 arbitrary units of auxiliary gas. The MS scan was operated in the positive or negative ionization mode. The selected reaction monitoring (SRM) mode was used, with argon as the collision gas at 1.5 mTorr. The mass resolution was set at 0.7 full-width at half-height (unit resolution). SRM transitions (precursor and product ions) were mass to charge ratios of (m/z) 296 > 214 for DIC (positive ionization mode), 294 > 250 for DIC (negative ionization mode), 242 > 224 for MEF, 292 > 139 for ZOM, 243 > 198 for R- and S-FLU, 255 > 209 for R- and S-KET, 231 > 185 for R- and S-NAP, and 302 > 220 for DIC-d4. The collision energies were 15 V for DIC (negative ionization mode), ZOM, MEF, FLU, KET, and NAP; 35 V for DIC (positive ionization mode); and DIC-d4.” left out

Row | covalent adduct formation with UGT2B7 (UGT2B7; 37 °C) | SMILES | amounts of covalent adducts with UGT2B7 compared with UGT1A9 (UGT2B7) | half-lives in buffers [1] | covalent adduct formation with UGT1A9 compared with the other diastereomer (UGT1A9) | amounts of covalent adducts with UGT2B (UGT2B7) relative to UGT1A isoforms (UGT2B7) | covalent adduct formation with UGT2B7 compared with the other diastereomer (UGT2B7) | amounts of covalent adducts with UGT2B (UGT2B4) relative to UGT1A isoforms (UGT2B4) | covalent adduct formation with UGT1A1 compared with the other diastereomer (UGT1A1)
1 | higher amounts of covalent adducts | Cc1cc(CC(=O)O[C@@H]2O[C@H](C(=O)O)[C@@H](O)[C@H](O)[C@H]2O)n(C)c1C(=O)c1ccc(Cl)cc1 [ZOM-AG] | significantly higher amounts of covalent adducts | relatively short half-lives |  |  |  |  | 
2 |  | COc1ccc2cc(C(C)C(=O)OC3OC(C(=O)O)C(O)C(O)C3O)ccc2c1 (centres unmarked) [R-NAP-AG] |  |  | significantly more covalent adducts | relatively higher amounts of covalent adducts | significantly more covalent adducts | relatively higher amounts of covalent adducts | significantly more covalent adducts
3 |  | CC(C(=O)OC1OC(C(=O)O)C(O)C(O)C1O)c1ccc(-c2ccccc2)c(F)c1 (centres unmarked) [S-FLU-AG] |  |  | significantly higher |  | significantly higher |  | significantly higher
